# Measurements as given in the kinase profiling compilation of Christmann-Franck et al. (2016).
# Columns and labels:
# Experiment in all cases: radiometric filter-binding kinase assay, Kinase HotSpot
# Settings in all cases: compound 0.5 µM; ATP 10 µM
# [1] = target: ACVR1B (human) (UniProt P36896)
# [2] = target: AURKB (human) (UniProt Q96GD4)
# [3] = target: BRAF (human) (UniProt P15056)
# [4] = target: CAMK1D (human) (UniProt Q8IU85)
# [5] = target: CDK1 CCNA2 (human) (UniProt P06493+P20248)
# [6] = target: CDK6 CCND1 (human) (UniProt Q00534+P24385)
# [7] = target: CLK2 (human) (UniProt P49760)
# [8] = target: CSNK1E (human) (UniProt P49674)
# CSNK1E (human), sequence (P49674 whole entry, looked up): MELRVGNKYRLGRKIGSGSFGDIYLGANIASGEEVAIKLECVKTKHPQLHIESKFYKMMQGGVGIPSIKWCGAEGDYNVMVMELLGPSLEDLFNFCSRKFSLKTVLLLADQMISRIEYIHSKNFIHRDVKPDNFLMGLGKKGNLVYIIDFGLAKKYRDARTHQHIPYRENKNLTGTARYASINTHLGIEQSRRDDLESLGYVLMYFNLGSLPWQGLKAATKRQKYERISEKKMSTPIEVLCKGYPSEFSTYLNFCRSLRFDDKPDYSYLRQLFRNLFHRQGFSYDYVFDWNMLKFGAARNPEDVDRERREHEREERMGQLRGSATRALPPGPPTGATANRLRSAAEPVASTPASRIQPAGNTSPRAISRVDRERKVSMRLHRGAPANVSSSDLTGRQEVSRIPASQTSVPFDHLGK
# [9] = target: CSNK2A2 (human) (UniProt P19784)
# [10] = target: DAPK1 (human) (UniProt P53355)
# [11] = target: DDR2 (human) (UniProt Q16832)
# [12] = target: ERBB2 (human) (UniProt P04626)
# [13] = target: ERBB4 (human) (UniProt Q15303)
# [14] = target: FGFR1 (human) (UniProt P11362)
# [15] = target: FGFR2 (human) (UniProt P21802)
# [16] = target: GRK7 (human) (UniProt Q8WTQ7)
# [17] = target: JAK2 JH1 JH2 (human) (UniProt O60674)
# [18] = target: LCK (human) (UniProt P06239)
# LCK (human), sequence (P06239 whole entry, looked up): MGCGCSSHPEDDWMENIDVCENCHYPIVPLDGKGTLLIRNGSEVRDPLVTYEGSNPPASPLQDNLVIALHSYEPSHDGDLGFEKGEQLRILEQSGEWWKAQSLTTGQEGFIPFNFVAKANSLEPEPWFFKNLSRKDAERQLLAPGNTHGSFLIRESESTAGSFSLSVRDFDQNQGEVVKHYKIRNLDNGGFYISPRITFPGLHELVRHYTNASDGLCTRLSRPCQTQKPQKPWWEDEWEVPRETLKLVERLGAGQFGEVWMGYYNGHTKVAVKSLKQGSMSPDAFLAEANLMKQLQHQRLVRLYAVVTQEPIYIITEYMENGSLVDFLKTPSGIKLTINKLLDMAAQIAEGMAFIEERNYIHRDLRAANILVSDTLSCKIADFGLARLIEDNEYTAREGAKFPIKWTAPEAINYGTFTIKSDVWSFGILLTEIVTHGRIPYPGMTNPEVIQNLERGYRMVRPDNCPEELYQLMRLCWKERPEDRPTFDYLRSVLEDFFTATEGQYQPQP
# [19] = target: MAP2K1 (human) (UniProt Q02750)
# [20] = target: MAP3K11 (human) (UniProt Q16584)
# [21] = target: MAP3K14 (human) (UniProt Q99558)
# MAP3K14 (human), sequence (Q99558 whole entry, looked up): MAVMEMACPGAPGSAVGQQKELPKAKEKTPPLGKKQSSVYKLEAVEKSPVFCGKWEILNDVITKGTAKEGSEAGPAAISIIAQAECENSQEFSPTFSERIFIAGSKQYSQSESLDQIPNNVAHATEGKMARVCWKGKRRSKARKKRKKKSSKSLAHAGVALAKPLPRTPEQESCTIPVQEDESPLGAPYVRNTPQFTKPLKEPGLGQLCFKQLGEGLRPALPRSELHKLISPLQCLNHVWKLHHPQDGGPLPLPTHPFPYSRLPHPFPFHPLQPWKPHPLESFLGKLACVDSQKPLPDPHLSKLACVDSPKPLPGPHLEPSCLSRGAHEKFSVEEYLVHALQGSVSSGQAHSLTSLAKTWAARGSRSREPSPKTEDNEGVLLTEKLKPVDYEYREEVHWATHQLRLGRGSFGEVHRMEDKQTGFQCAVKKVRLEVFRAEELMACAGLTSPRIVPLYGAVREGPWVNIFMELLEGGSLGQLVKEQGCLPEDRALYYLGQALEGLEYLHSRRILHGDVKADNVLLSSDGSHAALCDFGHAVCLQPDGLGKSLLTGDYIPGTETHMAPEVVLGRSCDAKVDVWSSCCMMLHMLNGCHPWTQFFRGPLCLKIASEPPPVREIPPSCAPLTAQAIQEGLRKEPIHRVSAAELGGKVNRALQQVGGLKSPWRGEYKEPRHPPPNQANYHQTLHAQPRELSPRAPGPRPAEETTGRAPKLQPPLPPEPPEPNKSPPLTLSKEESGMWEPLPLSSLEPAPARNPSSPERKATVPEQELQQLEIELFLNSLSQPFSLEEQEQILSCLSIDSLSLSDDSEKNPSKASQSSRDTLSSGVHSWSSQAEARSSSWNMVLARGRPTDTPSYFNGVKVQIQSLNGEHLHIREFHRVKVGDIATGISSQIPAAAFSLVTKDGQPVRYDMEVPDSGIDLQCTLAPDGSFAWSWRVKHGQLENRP
# [22] = target: MAPK10 (human) (UniProt P53779)
# [23] = target: MARK2 (human) (UniProt Q7KZI7)
# MARK2 (human), sequence (Q7KZI7 whole entry, looked up): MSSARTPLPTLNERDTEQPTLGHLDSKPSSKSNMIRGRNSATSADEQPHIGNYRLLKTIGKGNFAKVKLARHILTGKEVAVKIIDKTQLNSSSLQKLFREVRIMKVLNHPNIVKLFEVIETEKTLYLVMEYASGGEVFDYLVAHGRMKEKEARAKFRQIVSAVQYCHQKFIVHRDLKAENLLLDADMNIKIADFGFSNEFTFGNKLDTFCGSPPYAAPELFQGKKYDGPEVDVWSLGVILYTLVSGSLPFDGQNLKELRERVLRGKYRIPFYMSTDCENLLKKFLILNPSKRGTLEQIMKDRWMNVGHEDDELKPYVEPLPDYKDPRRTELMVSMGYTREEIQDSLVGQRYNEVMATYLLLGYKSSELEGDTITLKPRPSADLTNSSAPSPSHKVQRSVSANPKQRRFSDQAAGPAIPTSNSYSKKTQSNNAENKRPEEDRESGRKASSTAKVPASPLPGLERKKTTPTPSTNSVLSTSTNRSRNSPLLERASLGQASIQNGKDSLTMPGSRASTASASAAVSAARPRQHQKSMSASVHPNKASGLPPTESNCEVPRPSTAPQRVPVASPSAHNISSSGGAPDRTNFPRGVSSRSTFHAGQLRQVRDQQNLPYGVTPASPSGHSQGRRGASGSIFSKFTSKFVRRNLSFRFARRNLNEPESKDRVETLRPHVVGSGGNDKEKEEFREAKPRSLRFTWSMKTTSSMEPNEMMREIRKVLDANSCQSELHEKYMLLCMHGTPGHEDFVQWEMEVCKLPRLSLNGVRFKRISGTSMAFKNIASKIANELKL
# [24] = target: MYLK (human) (UniProt Q15746)
# [25] = target: NEK6 (human) (UniProt Q9HC98)
# [26] = target: NUAK1 (human) (UniProt O60285)
# [27] = target: PASK (human) (UniProt Q96RG2)
# [28] = target: PKN2 (human) (UniProt Q16513)
# [29] = target: PLK1 (human) (UniProt P53350)
# [30] = target: PRKCB2 (human) (UniProt P05771)
# [31] = target: PRKCZ (human) (UniProt Q05513)
# [32] = target: PTK2B (human) (UniProt Q14289)
# PTK2B (human), sequence (Q14289 whole entry, looked up): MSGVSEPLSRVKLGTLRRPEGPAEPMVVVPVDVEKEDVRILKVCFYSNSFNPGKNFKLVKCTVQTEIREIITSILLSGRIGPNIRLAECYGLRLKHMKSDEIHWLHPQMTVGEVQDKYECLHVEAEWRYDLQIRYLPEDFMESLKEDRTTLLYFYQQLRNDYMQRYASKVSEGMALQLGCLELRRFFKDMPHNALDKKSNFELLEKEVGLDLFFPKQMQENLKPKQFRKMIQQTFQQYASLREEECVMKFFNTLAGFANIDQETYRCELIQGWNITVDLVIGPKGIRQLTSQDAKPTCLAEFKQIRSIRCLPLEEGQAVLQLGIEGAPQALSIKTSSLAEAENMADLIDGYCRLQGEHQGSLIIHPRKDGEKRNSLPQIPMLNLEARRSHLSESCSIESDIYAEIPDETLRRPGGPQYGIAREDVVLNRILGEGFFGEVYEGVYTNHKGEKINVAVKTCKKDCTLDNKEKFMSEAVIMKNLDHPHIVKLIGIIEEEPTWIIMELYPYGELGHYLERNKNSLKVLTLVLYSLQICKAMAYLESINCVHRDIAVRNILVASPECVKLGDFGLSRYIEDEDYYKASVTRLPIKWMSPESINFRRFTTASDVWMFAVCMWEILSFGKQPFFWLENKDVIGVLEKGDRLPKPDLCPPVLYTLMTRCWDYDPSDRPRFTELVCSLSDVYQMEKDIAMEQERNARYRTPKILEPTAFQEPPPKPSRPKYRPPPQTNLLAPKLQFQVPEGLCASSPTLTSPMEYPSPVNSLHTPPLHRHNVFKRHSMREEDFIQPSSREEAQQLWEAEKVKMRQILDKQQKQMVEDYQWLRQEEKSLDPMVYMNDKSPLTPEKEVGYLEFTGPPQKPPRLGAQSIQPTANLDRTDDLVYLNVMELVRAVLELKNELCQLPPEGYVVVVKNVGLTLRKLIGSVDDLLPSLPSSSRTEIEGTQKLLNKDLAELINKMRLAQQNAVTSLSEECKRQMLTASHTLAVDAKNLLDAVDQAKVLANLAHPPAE
# [33] = target: STK33 (human) (UniProt Q9BYT3)
# [34] = target: TYK2 JH1 catalytic (human) (UniProt P29597)
# [35] = target: WNK2 (human) (UniProt Q9Y3S1)
# [36] = target: ZAP70 (human) (UniProt P43403)
# [37] = target: CHUK (human) (UniProt O15111)
# [38] = target: OXSR1 (human) (UniProt O95747)
# [39] = target: ROCK2 (human) (UniProt O75116)
# [40] = target: RPS6KA3 KD1 KD2 (human) (UniProt P51812)
# ACVR1B (human), sequence (P36896 whole entry, looked up): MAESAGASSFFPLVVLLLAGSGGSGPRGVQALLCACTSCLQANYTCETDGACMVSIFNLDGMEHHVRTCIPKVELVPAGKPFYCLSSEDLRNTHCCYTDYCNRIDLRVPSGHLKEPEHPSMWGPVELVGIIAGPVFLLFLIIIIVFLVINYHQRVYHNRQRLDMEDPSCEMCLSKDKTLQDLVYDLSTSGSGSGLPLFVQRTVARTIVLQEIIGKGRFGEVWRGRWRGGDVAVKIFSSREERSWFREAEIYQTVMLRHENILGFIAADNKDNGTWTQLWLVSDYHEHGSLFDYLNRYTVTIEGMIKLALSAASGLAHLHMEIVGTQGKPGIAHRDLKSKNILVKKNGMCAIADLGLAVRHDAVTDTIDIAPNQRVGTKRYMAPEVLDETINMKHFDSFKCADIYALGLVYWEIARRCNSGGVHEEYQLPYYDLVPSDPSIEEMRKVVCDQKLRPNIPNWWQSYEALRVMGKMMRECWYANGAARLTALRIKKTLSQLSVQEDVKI
# BRAF (human), sequence (P15056 whole entry, looked up): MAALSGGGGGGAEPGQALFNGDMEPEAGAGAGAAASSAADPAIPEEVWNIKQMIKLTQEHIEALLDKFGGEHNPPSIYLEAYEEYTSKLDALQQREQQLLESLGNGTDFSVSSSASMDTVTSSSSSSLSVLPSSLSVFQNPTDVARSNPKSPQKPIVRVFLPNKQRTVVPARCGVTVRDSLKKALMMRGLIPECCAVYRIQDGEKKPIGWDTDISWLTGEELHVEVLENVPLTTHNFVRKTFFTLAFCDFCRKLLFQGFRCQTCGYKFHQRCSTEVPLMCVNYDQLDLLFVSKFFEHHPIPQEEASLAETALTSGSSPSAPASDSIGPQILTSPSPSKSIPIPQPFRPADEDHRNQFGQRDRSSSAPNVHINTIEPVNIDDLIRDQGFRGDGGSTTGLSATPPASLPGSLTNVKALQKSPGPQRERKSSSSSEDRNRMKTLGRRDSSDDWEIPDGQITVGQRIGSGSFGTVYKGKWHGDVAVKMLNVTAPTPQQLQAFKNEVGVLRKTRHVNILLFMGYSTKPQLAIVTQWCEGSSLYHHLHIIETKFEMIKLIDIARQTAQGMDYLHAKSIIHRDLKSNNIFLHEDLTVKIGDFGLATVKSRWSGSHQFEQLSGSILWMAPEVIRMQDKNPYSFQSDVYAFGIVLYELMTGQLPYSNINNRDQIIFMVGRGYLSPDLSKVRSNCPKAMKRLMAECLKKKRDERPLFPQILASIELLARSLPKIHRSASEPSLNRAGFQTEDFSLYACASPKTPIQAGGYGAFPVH
SMILES,residual activity [1] [%],residual activity [2] [%],residual activity [3] [%],residual activity [4] [%],residual activity [5] [%],residual activity [6] [%],residual activity [7] [%],residual activity [8] [%],residual activity [9] [%],residual activity [10] [%],residual activity [11] [%],residual activity [12] [%],residual activity [13] [%],residual activity [14] [%],residual activity [15] [%],residual activity [16] [%],residual activity [17] [%],residual activity [18] [%],residual activity [20] [%],residual activity [21] [%],further results
O=S(=O)(c1cccc2cnccc12)N1CCCNCC1,100,98.8,97.7,91.5,98.6,86.4,95.1,99.3,91.9,79,92.2,108,101,94.6,97.6,114,107,101,99.7,97.7,residual activity [19]: 83%; residual activity [22]: 85.3%; residual activity [23]: 108%; residual activity [24]: 97.4%; residual activity [25]: 97.6%; residual activity [26]: 73.2%; residual activity [27]: 97.1%; residual activity [28]: 103%; residual activity [29]: 103%; residual activity [30]: 101%; residual activity [31]: 94.7%; residual activity [32]: 90.6%; residual activity [33]: 90.3%; residual activity [34]: 81.6%; residual activity [35]: 99.3%; residual activity [36]: 108%
CCOC(=O)c1c(C)[nH]c(/C=C2\C(=O)Nc3ccccc32)c1C,96.6,67.3,96.7,93.1,96.3,89.7,86,73.7,94.7,100,98,101,71.2,78.6,97.9,86.3,96.7,88.2,47,118,residual activity [37]: 102%; residual activity [22]: 86.8%; residual activity [23]: 87.6%; residual activity [24]: 94.8%; residual activity [25]: 98.1%; residual activity [26]: 62.3%; residual activity [38]: 87.9%; residual activity [27]: 91.4%; residual activity [28]: 92%; residual activity [29]: 107%; residual activity [30]: 91.5%; residual activity [31]: 97%; residual activity [32]: 80.6%; residual activity [39]: 94.3%; residual activity [40]: 86.4%; residual activity [33]: 83.7%; residual activity [34]: 89.9%; residual activity [35]: 100%; residual activity [36]: 98.8%
N#CC(C#N)=C(N)/C(C#N)=C/c1ccc(O)cc1,101,91,90.1,98.9,90.6,91.3,100,92.4,102,92.7,97.6,90.1,92.7,95.3,102,104,102,95.1,94.8,108,residual activity [37]: 94%; residual activity [19]: 93.7%; residual activity [22]: 98.8%; residual activity [23]: 91.3%; residual activity [24]: 101%; residual activity [25]: 97.3%; residual activity [26]: 92.3%; residual activity [38]: 72.2%; residual activity [27]: 82.9%; residual activity [28]: 96.9%; residual activity [29]: 60.8%; residual activity [30]: 111%; residual activity [31]: 105%; residual activity [32]: 97.4%; residual activity [39]: 98.3%; residual activity [40]: 94.6%; residual activity [33]: 93.2%; residual activity [34]: 97.4%; residual activity [36]: 96%
